Source: ChEMBL document CHEMBL1697731, “Cheminformatics analysis of assertions mined from literature that describe drug-induced liver injury in different species” (Chem Res Toxicol, 2010)

Legend:
Hepatotoxicity [1] = experiment: Literature-mined compound from Fourches et al multi-species drug-induced liver injury (DILI) dataset, effect in non-rodents
Hepatotoxicity [2] = experiment: Literature-mined compound from Fourches et al multi-species drug-induced liver injury (DILI) dataset, effect in humans; conditions: human
Hepatotoxicity [3] = experiment: Literature-mined compound from Fourches et al multi-species drug-induced liver injury (DILI) dataset, effect in rodents; conditions: rodentia

Structure (SMILES) | Hepatotoxicity (Hepatotoxicity [1]) | Hepatotoxicity (Hepatotoxicity [2]) | Hepatotoxicity (Hepatotoxicity [3]) | Hepatotoxicity (Hepatotoxicity [1]; Liver) | Hepatotoxicity (Hepatotoxicity [2]; Liver) | Hepatotoxicity (Hepatotoxicity [3]; Liver)
CCCCC(C)(O)C/C=C/[C@H]1[C@H](O)CC(=O)[C@@H]1CCCCCCC(=O)OC (stereo not given in full) [MISOPROSTOL] | drug-induced liver injury reported | no drug-induced liver injury reported | drug-induced liver injury reported | – | – | –
O=C(O)[C@H](CC(=O)N1C[C@H]2CCCC[C@H]2C1)Cc1ccccc1 [MITIGLINIDE] | no drug-induced liver injury reported | no drug-induced liver injury reported | drug-induced liver injury reported | – | – | –
Clc1ccc(C(c2ccccc2Cl)C(Cl)Cl)cc1 (stereo not given) [MITOTANE] | drug-induced liver injury reported | drug-induced liver injury reported | no drug-induced liver injury reported | – | – | –
O=C1c2c(O)ccc(O)c2C(=O)c2c(NCCNCCO)ccc(NCCNCCO)c21 [MITOXANTRONE] | no drug-induced liver injury reported | drug-induced liver injury reported | drug-induced liver injury reported | – | – | –
CN(c1nccc(=O)[nH]1)C1CCN(c2nc3ccccc3n2Cc2ccc(F)cc2)CC1 [MIZOLASTINE] | no drug-induced liver injury reported | drug-induced liver injury reported | no drug-induced liver injury reported | – | – | –
NC(=O)C[S+]([O-])C(c1ccccc1)c1ccccc1 (stereo not given) [MODAFINIL] | no drug-induced liver injury reported | drug-induced liver injury reported | no drug-induced liver injury reported | – | – | –
CCOC(=O)[N-]c1cn(N2CCOCC2)n[o+]1 [MOLSIDOMINE] | no drug-induced liver injury reported | drug-induced liver injury reported | drug-induced liver injury reported | – | – | –
CC[C@@]1([C@H]2O[C@H]([C@H]3O[C@@](O)(CO)[C@H](C)C[C@@H]3C)C[C@H]2C)CC[C@H]([C@@]2(C)CC[C@]3(C[C@H](O)[C@@H](C)[C@@H]([C@H](C)[C@H](OC)[C@@H](C)C(=O)[O-])O3)O2)O1.[Na+] [MONENSIN SODIUM] | no drug-induced liver injury reported | no drug-induced liver injury reported | drug-induced liver injury reported | – | – | –
CC(C)(O)c1ccccc1CC[C@@H](SCC1(CC(=O)O)CC1)c1cccc(/C=C/c2ccc3ccc(Cl)cc3n2)c1 [MONTELUKAST] | no drug-induced liver injury reported | drug-induced liver injury reported | no drug-induced liver injury reported | – | – | –
O=C(NCN1CCOCC1)c1cnccn1 [MORINAMIDE] | no drug-induced liver injury reported | drug-induced liver injury reported | no drug-induced liver injury reported | – | – | –
CN1CC[C@]23c4c5ccc(O)c4O[C@H]2[C@@H](O)C=C[C@H]3[C@H]1C5 [MORPHINE] | – | – | – | no drug-induced liver injury reported | drug-induced liver injury reported | drug-induced liver injury reported
CO[C@@]1(NC(=O)C(C(=O)O)c2ccc(O)cc2)C(=O)N2C(C(=O)O)=C(CSc3nnnn3C)CO[C@@H]21 (stereo not given in full) [MOXALACTAM] | no drug-induced liver injury reported | drug-induced liver injury reported | no drug-induced liver injury reported | – | – | –
COc1c(N2C[C@@H]3CCCN[C@@H]3C2)c(F)cc2c(=O)c(C(=O)O)cn(C3CC3)c12 [MOXIFLOXACIN] | no drug-induced liver injury reported | drug-induced liver injury reported | no drug-induced liver injury reported | – | – | –
CC(=O)Oc1cc(C(C)C)c(OCCN(C)C)cc1C [MOXISYLYTE] | no drug-induced liver injury reported | drug-induced liver injury reported | no drug-induced liver injury reported | – | – | –
COc1nc(C)nc(Cl)c1N=C1NCCN1 [MOXONIDINE] | no drug-induced liver injury reported | no drug-induced liver injury reported | drug-induced liver injury reported | – | – | –
CC(c1ccc(Cl)c(Cl)c1)N1N=C(N)CC1=O (stereo not given) [MUZOLIMINE] | no drug-induced liver injury reported | drug-induced liver injury reported | no drug-induced liver injury reported | – | – | –
COc1c(C)c2c(c(O)c1C/C=C(\C)CCC(=O)OCCN1CCOCC1)C(=O)OC2 [MYCOPHENOLATE MOFETIL] | no drug-induced liver injury reported | drug-induced liver injury reported | no drug-induced liver injury reported | – | – | –
COc1c(C)c2c(c(O)c1C/C=C(\C)CCC(=O)O)C(=O)OC2 [MYCOPHENOLIC ACID] | no drug-induced liver injury reported | drug-induced liver injury reported | drug-induced liver injury reported | – | – | –

Structure (SMILES) | Hepatotoxicity (Hepatotoxicity [1]) | Hepatotoxicity (Hepatotoxicity [2]) | Hepatotoxicity (Hepatotoxicity [3]) | Hepatotoxicity (Hepatotoxicity [1]; Liver) | Hepatotoxicity (Hepatotoxicity [2]; Liver) | Hepatotoxicity (Hepatotoxicity [3]; Liver)
COc1ccc2cc(CCC(C)=O)ccc2c1 [NABUMETONE] | no drug-induced liver injury reported | no drug-induced liver injury reported | drug-induced liver injury reported | – | – | –
NC(=O)c1ccc[n+]([C@@H]2O[C@H](COP(=O)([O-])OP(=O)(O)OC[C@H]3O[C@@H](n4cnc5c(N)ncnc54)[C@H](O)[C@@H]3O)[C@@H](O)[C@H]2O)c1 [NADIDE] | no drug-induced liver injury reported | no drug-induced liver injury reported | drug-induced liver injury reported | – | – | –
CC(C)(C)NCC(O)COc1cccc2c1CC(O)C(O)C2 (stereo not given) [NADOLOL] | no drug-induced liver injury reported | drug-induced liver injury reported | no drug-induced liver injury reported | – | – | –
CC(C)C[C@H](NC(=O)[C@@H](Cc1ccc2ccccc2c1)NC(=O)[C@H](Cc1ccc(O)cc1)NC(=O)[C@H](CO)NC(=O)[C@H](Cc1c[nH]c2ccccc12)NC(=O)[C@H](Cc1c[nH]cn1)NC(=O)[C@@H]1CCC(=O)N1)C(=O)N[C@@H](CCCNC(=N)N)C(=O)N1CCC[C@H]1C(=O)NCC(N)=O [NAFARELIN] | no drug-induced liver injury reported | drug-induced liver injury reported | no drug-induced liver injury reported | – | – | –
CCn1cc(C(=O)O)c(=O)c2ccc(C)nc21 [NALIDIXIC ACID] | no drug-induced liver injury reported | drug-induced liver injury reported | drug-induced liver injury reported | – | – | –
C=CCN1CC[C@]23c4c5ccc(O)c4O[C@H]2[C@@H](O)C=C[C@H]3[C@H]1C5 [NALORPHINE] | no drug-induced liver injury reported | no drug-induced liver injury reported | drug-induced liver injury reported | – | – | –
C=CCN1CC[C@]23c4c5ccc(O)c4O[C@H]2C(=O)CC[C@@]3(O)[C@H]1C5 [NALOXONE] | no drug-induced liver injury reported | no drug-induced liver injury reported | drug-induced liver injury reported | – | – | –
O=C1CC[C@@]2(O)[C@H]3Cc4ccc(O)c5c4[C@@]2(CCN3CC2CC2)[C@H]1O5 [NALTREXONE] | no drug-induced liver injury reported | drug-induced liver injury reported | drug-induced liver injury reported | – | – | –
CCCCCCCCCC(=O)O[C@H]1CC[C@H]2[C@@H]3CCC4=CC(=O)CC[C@@H]4[C@H]3CC[C@]12C [NANDROLONE DECANOATE] | no drug-induced liver injury reported | no drug-induced liver injury reported | drug-induced liver injury reported | – | – | –
COc1ccc2cc([C@H](C)C(=O)O)ccc2c1 [NAPROXEN] | – | – | – | no drug-induced liver injury reported | drug-induced liver injury reported | drug-induced liver injury reported
C[C@@H]1C/C=C/C=C/C=C/C=C/[C@H](O[C@@H]2O[C@H](C)[C@@H](O)[C@H](N)[C@@H]2O)C[C@@H]2O[C@](O)(C[C@@H](O)C[C@H]3O[C@@H]3/C=C/C(=O)O1)C[C@H](O)[C@H]2C(=O)O [NATAMYCIN] | drug-induced liver injury reported | no drug-induced liver injury reported | no drug-induced liver injury reported | – | – | –
CCc1nn(CCCN2CCN(c3cccc(Cl)c3)CC2)c(=O)n1CCOc1ccccc1 [NEFAZODONE] | no drug-induced liver injury reported | drug-induced liver injury reported | no drug-induced liver injury reported | – | – | –
CN(C)C(=O)Oc1cccc([N+](C)(C)C)c1.[Br-] [NEOSTIGMINE BROMIDE] | no drug-induced liver injury reported | no drug-induced liver injury reported | drug-induced liver injury reported | – | – | –
CCN[C@@H]1C[C@H](N)[C@@H](O[C@H]2OC(CN)=CC[C@H]2N)[C@H](O)[C@H]1O[C@H]1OC[C@](C)(O)[C@H](NC)[C@H]1O [NETILMICIN] | no drug-induced liver injury reported | drug-induced liver injury reported | drug-induced liver injury reported | – | – | –
Cc1ccnc2c1NC(=O)c1cccnc1N2C1CC1 [NEVIRAPINE] | no drug-induced liver injury reported | drug-induced liver injury reported | no drug-induced liver injury reported | – | – | –
NC(=O)c1cccnc1 [NIACINAMIDE] | no drug-induced liver injury reported | drug-induced liver injury reported | drug-induced liver injury reported | – | – | –
O=C(CCNNC(=O)c1ccncc1)NCc1ccccc1 [NIALAMIDE] | no drug-induced liver injury reported | no drug-induced liver injury reported | drug-induced liver injury reported | – | – | –
